Columns and labels:
Assay type in all cases: cell-based
[1] = target: T1, delF508-CFTR chloride ion channels (Homo sapiens, UniProt P13569, DEL508-508); experiment: Ussing chamber short-circuit current electrical assay; conditions: apical membrane of polarized CF human bronchial epithelium
T1 construct: functional delF508-CFTR chloride ion channels in the apical membrane of a polarized CF human bronchial epithelium; endogenous in cells
Experimental: The method of profiling can further include determining the degree of functional delF508-CFTR chloride ion channels in the apical cell membrane of cells (e.g., polarized CF human airway epithelial cells). This method can use electrophysiological methods, such as Ussing chamber-based measurement of short-circuit current, voltammeter-based measurement of open-circuit transepithelial voltage and transepithelial resistance, and patch-clamp electrophysiology.
An electrical assay was also performed to determine the functional rescue of delF508-CFTR to the apical cell membrane in a polarized epithelium using the compounds described herein. The metrics analyzed were the basal short-circuit Cl^− current, the change or delta Cl^− current stimulated by forskolin, the total stimulated Cl^− current (basal and forskolin), and the change or delta Cl^− current inhibited by GlyH101. For exemplary purposes, DMSO (100 nM) and VX-809 (100 nM equivalent) treatments were controls, and a CFCL corrector was tested (see FIG. 9).
Only high-resistance cell monolayers (>800 to 1,000 Ohms per cm^2) were used in the experiments. Basal short-circuit current (ISC) was measured and documented. Amiloride was added to the apical side of the Ussing chamber to block any contribution of ENaC or other sodium or cation channels under basal or stimulated conditions. The effect of amiloride was negligible under these cell culture conditions. In the continued presence of amiloride (100 μM), forskolin (10 μM) was added to both sides of the monolayer to selectively open any delF508-CFTR chloride channels in the apical cell membrane. This activation step uncovered any remaining corrected delF508-CFTR chloride ion channels in the apical membrane of the polarized CF human bronchial epithelium. The final step was the addition of a CFTR-selective inhibitor, GlyH101 (100 μM), to reverse the effect of forskolin.
Ussing chamber-derived short-circuit current data were obtained for Compounds C-15 and C-73 (see FIGS. 10 and 11). […] The same protocol of additions of drugs to the apical side of the Ussing chamber was performed on each cell monolayer as described above. CPT-cAMP and IBMX are equivalent and CFTR-specific agonists to forskolin. As described above, VX-770 is a CFTR potentiator drug added to activate any remaining corrected CFTR present.

[2] = target: T2, delF508-CFTR (Homo sapiens, UniProt P13569, DEL508-508); experiment: SPQ halide-sensitive fluorescence dye profiling assay (rescue of halide efflux)
T2 construct: Unaltered CFBE41o− cells were used as the model; endogenous in cells; host or cells: CFBE41o- human CF bronchial epithelial cells (delF508 homozygous, not overexpressing)
Experimental: The method of profiling can include detecting the rescue of halide efflux from a cell. The step of detecting a rescue of halide efflux from the cell can be monitored using the halide quenched dye 6-methoxy-N-(3-sulfopropyl)-quinolinium (SPQ, Molecular Probes Inc., Eugene, Oreg.). In this method, cells are treated with a compound as described herein for a period of time (e.g., 48 hours). The rescue or correction of halide efflux is then detected using the SPQ assay with the halide dye. […] Optionally, the halide efflux is chloride efflux. The method of screening can further comprise performing the method with multiple concentrations of the compound.
The compounds were initially subjected to the SPQ halide-sensitive fluorescence dye profiling assay for rescue or correction of membrane chloride ion permeability or transport with an 8-point concentration-response curve. The EC50 values for the compounds described herein were determined and compared to the efficacy of the industry standard Vertex 809 (VX-809; Vertex Pharmaceuticals, Cambridge, Mass.) at 3 μM, which is the maximally effective profiling dose for VX-809 (Table 1). The VX-809 dosage at 3 μM was treated as having 100% efficacy in the comparison.
To perform the SPQ high throughput screening assay, CFBE41o− cells were seeded into 96-well microtiter plates and were loaded with the fluorescent halide-sensitive dye, SPQ, in serum-containing culture medium. Certain wells were loaded with known positive control corrector molecules, including VX-809. The test compounds were loaded into wells and were tested in triplicate wells at a 10 μM dose and incubated over 48 hours at room temperature. During the 48 hour period, SPQ was absorbed. Plates were washed in a sodium chloride (NaCl) based Ringer and read once over two minutes to set the baseline SPQ fluorescence activity. Then, NaCl was replaced by sodium nitrate (NaNO3) based Ringer. The plates were read twice over four minutes. The primary high throughput screen (HTS) data were analyzed to detect any function of rescued delF508-CFTR under basal conditions. The plate was read up to two times to complete the SPQ HTS assay.

[3] = target: T2, delF508-CFTR; experiment: CFTR Western blot / biochemical rescue assay (band B to band C); conditions: CF human airway epithelial cells; 10 nM-10 μM; 10% serum containing medium
Experimental: The method of profiling can also include determining the degree of CFTR glycosylation or CFTR protein processing. Optionally, this method can be performed using Western blot analysis. In this method, cells can be treated with the compound as described herein for a period of time (e.g., 24 hours) and, optionally, at multiple concentrations (e.g., 4 doses).
The method described in Example 3 was repeated with doses of the test compound of 0.01 μM, 0.1 μM, 1 μM, 10 μM, and 50 μM in Dulbecco's Modified Eagle Medium (DMEM) with 10% fetal bovine serum (FBS) for 48 hours at 37° C. Unaltered CFBE41o− cells were used as the model. A Western blot analysis of the lysates (10-50 μg total protein) was performed using the MM13-4 antibody for human CFTR to monitor changes in the CFTR protein. […] VX-809 and DMSO were used as the controls.
Cells were lysed in RIPA buffer (50 mM Tris-HCl, pH 7.4, 150 mM NaCl, 1% NP-40, 0.5% Deoxycholic Acid, 0.1% SDS) plus a cocktail of protease inhibitors (Roche; Basel, Switzerland). Protein concentrations in the cell lysates were measured by BCA Protein Assay using BSA as standard (Pierce; Rockford, Ill.). Proteins (25 μg) were resolved on an 8% SDS-PAGE gel and transferred to PDVF membranes. Total CFTR in the lysate was detected by immunoblotting using a specific CFTR antibody (MM13-4 from Upstate, 1:500 dilution).
The compounds were then subjected to a biochemical assay to define which hit compounds rescued the band B core glycosylated endoplasmic reticulum (ER) form of delF508-CFTR within the cell interior into the maturely glycosylated band C form within the secretory pathway for proteins and within the plasma membrane. Effective compounds stabilized the band B form of CFTR and caused more of this form to accumulate at the level of the ER.
By way of example, the delF508-CFTR mutation can be rescued from the ER with low temperature incubation for 48 hours (see examples in the blots as the positive control). The DMSO control is the simulated CF condition where the delF508-CFTR-expressing cells were grown at physiological temperature. […]

T2 sequence (P13569 with tags, fused parts or gaps DEL508-508): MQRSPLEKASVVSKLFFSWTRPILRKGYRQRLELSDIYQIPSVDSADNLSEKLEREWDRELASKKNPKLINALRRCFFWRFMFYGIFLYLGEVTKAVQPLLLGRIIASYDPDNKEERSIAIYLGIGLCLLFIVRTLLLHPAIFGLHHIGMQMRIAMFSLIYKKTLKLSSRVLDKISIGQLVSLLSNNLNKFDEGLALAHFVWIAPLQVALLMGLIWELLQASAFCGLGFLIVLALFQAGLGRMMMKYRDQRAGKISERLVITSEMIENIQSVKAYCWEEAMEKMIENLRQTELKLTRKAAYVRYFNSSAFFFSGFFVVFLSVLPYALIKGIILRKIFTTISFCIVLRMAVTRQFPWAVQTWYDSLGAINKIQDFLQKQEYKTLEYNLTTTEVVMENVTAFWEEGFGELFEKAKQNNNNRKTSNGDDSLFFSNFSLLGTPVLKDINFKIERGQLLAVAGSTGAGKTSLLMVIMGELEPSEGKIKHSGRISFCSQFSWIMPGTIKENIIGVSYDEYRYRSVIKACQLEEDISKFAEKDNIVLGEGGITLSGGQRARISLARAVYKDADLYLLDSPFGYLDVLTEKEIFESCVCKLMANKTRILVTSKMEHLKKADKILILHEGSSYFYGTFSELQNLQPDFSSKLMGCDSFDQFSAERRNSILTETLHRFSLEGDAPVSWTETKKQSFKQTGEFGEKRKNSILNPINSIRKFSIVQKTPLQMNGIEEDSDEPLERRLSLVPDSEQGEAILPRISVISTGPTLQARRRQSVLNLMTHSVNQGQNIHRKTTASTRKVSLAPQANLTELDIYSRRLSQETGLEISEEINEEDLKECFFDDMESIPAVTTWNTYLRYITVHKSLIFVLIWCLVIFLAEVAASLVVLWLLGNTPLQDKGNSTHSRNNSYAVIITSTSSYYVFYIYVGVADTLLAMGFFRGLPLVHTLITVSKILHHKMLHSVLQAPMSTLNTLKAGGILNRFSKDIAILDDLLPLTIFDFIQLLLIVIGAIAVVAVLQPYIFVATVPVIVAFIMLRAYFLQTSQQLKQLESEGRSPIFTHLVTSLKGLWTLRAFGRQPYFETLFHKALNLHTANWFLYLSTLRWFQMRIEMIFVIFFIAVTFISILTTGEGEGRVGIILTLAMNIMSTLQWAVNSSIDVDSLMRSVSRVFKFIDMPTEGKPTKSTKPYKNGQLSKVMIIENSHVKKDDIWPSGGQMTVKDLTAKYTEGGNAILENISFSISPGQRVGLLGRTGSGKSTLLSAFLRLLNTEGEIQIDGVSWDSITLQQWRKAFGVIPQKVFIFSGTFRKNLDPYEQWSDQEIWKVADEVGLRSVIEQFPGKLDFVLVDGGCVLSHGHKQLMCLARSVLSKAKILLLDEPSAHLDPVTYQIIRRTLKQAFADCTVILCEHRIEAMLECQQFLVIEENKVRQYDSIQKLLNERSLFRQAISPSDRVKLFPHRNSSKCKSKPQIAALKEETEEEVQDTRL
T1 sequence (P13569 with tags, fused parts or gaps DEL508-508): as above

Question: What does the source list for CCOC(=O)c1nnc2c(-c3ccc(Cl)c(Cl)c3)c(C)nn2c1C [Compound C-15]?
Answer: correction of functional delF508-CFTR chloride ion channels (short-circuit current) [1]: robust correction; EC50 ([2]; SPQ assay, 8-point concentration-response curve, CFBE41o− cells): 0.3 µM; Emax ([2]; VX-809 at 3 μM treated as 100% efficacy): 120%; Efficacy Comparison to 3 μM VX-809 ([2]; compared to VX-809 at 3 μM): 10-fold greater than VX-809; potency and efficacy versus VX-809 in SPQ profiling ([2]; compounds advanced to further profiling): superior potency and efficacy to VX-809; biochemical correction of the delF508-CFTR protein [3]: biochemical correction
